Biological target: T1, VEB-1 (Escherichia coli, UniProt Q7BVU7)
T1 construct: gene blaVEB; natural plasmid-encoded enzyme, no tags; crude cell extracts of E. coli K12 26R793 transconjugants TrcS-2865 (VEB-1) and TrcE-1037 (VEB-25, GenBank MN862699), which also contain OXA-10 and TEM-1
Assay: spectrophotometric inhibition of ceftazidime hydrolysis
Assay type: biochemical

Structure (SMILES): NC(=O)[C@@H]1CC[C@@H]2CN1C(=O)N2OS(=O)(=O)O [avibactam]
- IC50: 0.1 nM

From article PMC6976883, “Detection in two hospitals of transferable ceftazidime-avibactam resistance in Klebsiella pneumoniae due to a novel VEB β-lactamase variant with a Lys234Arg substitution, Greece, 2019” (Eurosurveillance, 2020)
